Assay results taken from patent publication US10821115B2, “Compounds that inhibit Mcl-1 protein” (priority 2017, dated 2020).
Read-outs that look alike come from different tables or passages of the source.

What was measured:
[1] = test system: human multiple myeloma cell line, OPM-2; assay: Cell viability assay (OPM-2 10 FBS), CellTiter-Glo; assay type: cell-based
In short: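 3000 cells/well, RPMI 1640 + 10% FBS; serial compound dilutions, 16 h, 37 °C/5% CO2.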

[2] = target: recombinant human Mcl-1 (residues 171-327) / Bim interaction (Homo sapiens (Human), UniProt Q07820); assay: biochemical; assay type: binding; settings: TR-FRET, Mcl-1(171-327) / biotin-Bim (51-76); read-out: Mcl-1 HTRF IC50
recombinant human Mcl-1 (residues 171-327) / Bim interaction, sequence (Q07820 171-327): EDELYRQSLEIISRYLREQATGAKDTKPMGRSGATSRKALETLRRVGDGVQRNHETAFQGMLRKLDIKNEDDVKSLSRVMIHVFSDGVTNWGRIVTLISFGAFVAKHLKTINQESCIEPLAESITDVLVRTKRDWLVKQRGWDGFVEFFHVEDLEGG

[3] = Homo sapiens, OPM-2, 16 h, read-out: OPM-2 10% FBS IC50 IP, OPM-2 cells, 10% FBS, 16 h, CellTiter-Glo
[4] = read-out: OPM-2 10% FBS IC50 IP, OPM-2 cells, 10% FBS, 16 h, CellTiter-Glo

| SMILES | IC50 [1, 3] | IC50 [2] | IC50 [1, 4] |
| --- | --- | --- | --- |
| C[C@@H]1[C@@H](C)C[C@H]2CCC[C@](O)(C2)[C@@H]2CC[C@H]2CN2C[C@@]3(CCCc4cc(Cl)ccc43)COc3ccc(cc32)C(=O)NS1(=O)=O [Example 100062, (1S,3′R,6′R,7′S,11′R,13′S,14′R)-6-chloro-7′-hydroxy-13′,14′-dimethyl-3,4-dihydro-2H,17′H-spiro[naphthalene-1,24′-[22]oxa[15]thia[1,16]diazapentacyclo [16.7.2.1~7,11~.0~3,6~.0~21,26~]octacosa [18,20,26]trien]-17′-one 15′,15′-dioxide] | 9940 nM | 4.25 nM | – |
| C[C@@H]1[C@@H](C)C[C@@H](N(C)C)C[C@](C)(O)[C@@H]2CC[C@H]2CN2C[C@@]3(CCCc4cc(Cl)ccc43)COc3ccc(cc32)C(=O)NS1(=O)=O [Example 100063, (1S,3′R,6′R,7′S,9′R,11′S,12′R)-6-chloro-9′-(dimethylamino)-7′-hydroxy-7′,11′,12′-trimethyl-3,4-dihydro-2H,15′H-spiro[naphthalene-1,22′-[20]oxa[13]thia[1,14]diazatetracyclo [14.7.2.0~3,6~.0~19,24~]pentacosa[16,18,24]trien]-15′-one 13′,13′-dioxide] | 2260 nM | 2.32 nM | – |
| CN[C@@H]1C[C@H](C)[C@@H](C)S(=O)(=O)NC(=O)c2ccc3c(c2)N(C[C@@H]2CC[C@H]2[C@@](C)(O)C1)C[C@@]1(CCCc2cc(Cl)ccc21)CO3 [Example 100064, (1S,3′R,6′R,7′S,9′R,11′S,12′R)-6-chloro-7′-hydroxy-7′,11′,12′-trimethyl-9′-(methylamino)-3,4-dihydro-2H,15′H-spiro[naphthalene-1,22′-[20]oxa[13]thia[1,14]diazatetracyclo [14.7.2.0~3,6~.0~19,24~]pentacosa[16,18,24]trien]-15′-one 13′,13′-dioxide] | 3730 nM | 2.54 nM | – |
| CN[C@@H]1C[C@H](C)[C@@H](C)S(=O)(=O)NC(=O)c2ccc3c(c2)N(C[C@@H]2CC[C@H]2[C@@](C)(O)C1)C[C@@]1(CCCc2cc(Cl)ccc21)CO3 [Example 100065, (1S,3′R,6′R,7′S,9′R,11′S,12′R)-6-chloro-7′-hydroxy-7′,11′,12′-trimethyl-9′-(methylamino)-3,4-dihydro-2H,15′H-spiro[naphthalene-1,22′-[20]oxa[13]thia[1,14]diazatetracyclo [14.7.2.0~3,6~.0~19,24~]pentacosa[16,18,24]trien]-15′-one 13′,13′-dioxide] | – | 4.85 nM | 7390 nM |
| CN[C@@H]1C[C@H](C)[C@@H](C)S(=O)(=O)NC(=O)c2ccc3c(c2)N(C[C@@H]2CC[C@H]2[C@@](C)(O)C1)C[C@@]1(CCCc2cc(Cl)ccc21)CO3 [Example 100066, (1S,3′R,6′R,7′S,9′R,11′S,12′R)-6-chloro-7′-hydroxy-7′,11′,12′-trimethyl-9′-(methylamino)-3,4-dihydro-2H,15′H-spiro[naphthalene-1,22′-[20]oxa[13]thia[1,14]diazatetracyclo [14.7.2.0~3,6~.0~19,24~]pentacosa[16,18,24]trien]-15′-one 13′,13′-dioxide] | – | 1.43 nM | 3820 nM |
| CCOP(=O)(OCC)C(F)(F)[C@]1(O)/C=C/C[C@H](C)[C@@H](C)S(=O)(=O)NC(=O)c2ccc3c(c2)N(C[C@@H]2CC[C@H]21)C[C@@]1(CCCc2cc(Cl)ccc21)CO3 [Example 100067, diethyl (((1S,3′R,6′R,7′S,8′E,11′S,12′R)-6-chloro-7′-hydroxy-11′,12′-dimethyl-13′,13′-dioxido-15′-oxo-3,4-dihydro-2H-spiro[naphthalene-1,22′-[20]oxa[13]thia[1,14]diazatetracyclo [14.7.2.0~3,6~.0~19,24~]pentacosa[8,16,18,24]tetraen]-7′-yl)(difluoro)methyl)phosphonate] | – | 1.01 nM | 271 nM |
| CCOP(=O)(OCC)C(F)(F)[C@]1(O)/C=C/C[C@H](C)[C@@H](C)S(=O)(=O)NC(=O)c2ccc3c(c2)N(C[C@@H]2CC[C@H]21)C[C@@]1(CCCc2cc(Cl)ccc21)CO3 [Example 100068, diethyl (((1S,3′R,6′R,7′S,8′E,11′S,12′R)-6-chloro-7′-hydroxy-11′,12′-dimethyl-13′,13′-dioxido-15′-oxo-3,4-dihydro-2H-spiro[naphthalene-1,22′-[20]oxa[13]thia[1,14]diazatetracyclo [14.7.2.0~3,6~.0~19,24~]pentacosa[8,16,18,24]tetraen]-7′-yl)(difluoro)methyl)phosphonate] | – | 4.41 nM | 765 nM |
| C[C@@H]1[C@@H](C)C/C=C/[C@@](O)(C(F)F)[C@@H]2CC[C@H]2CN2C[C@@]3(CCCc4cc(Cl)ccc43)COc3ccc(cc32)C(=O)NS1(=O)=O [Example 100069, (1S,3′R,6′R,7′S,8′E,11′S,12′R)-6-chloro-7′-(difluoromethyl)-7′-hydroxy-11′,12′-dimethyl-3,4-dihydro-2H,15′H-spiro[naphthalene-1,22′-[20]oxa[13]thia[1,14]diazatetracyclo [14.7.2.0~3,6~.0~19,24~]pentacosa[8,16,18,24]tetraen]-15′-one 13′,13′-dioxide] | – | 0.457 nM | 250 nM |
| C[C@@H]1[C@@H](C)C/C=C/[C@@](O)(C(F)F)[C@@H]2CC[C@H]2CN2C[C@@]3(CCCc4cc(Cl)ccc43)COc3ccc(cc32)C(=O)NS1(=O)=O [Example 100070, (1S,3′R,6′R,7′S,8′E,11′S,12′R)-6-chloro-7′-(difluoromethyl)-7′-hydroxy-11′,12′-dimethyl-3,4-dihydro-2H,15′H-spiro[naphthalene-1,22′-[20]oxa[13]thia[1,14]diazatetracyclo [14.7.2.0~3,6~.0~19,24~]pentacosa[8,16,18,24]tetraen]-15′-one 13′,13′-dioxide] | – | 4.85 nM | 1070 nM |
| CO[C@@]1(C(F)F)/C=C/C[C@H](C)[C@@H](C)S(=O)(=O)NC(=O)c2ccc3c(c2)N(C[C@@H]2CC[C@H]21)C[C@@]1(CCCc2cc(Cl)ccc21)CO3 [Example 100071, (1S,3′R,6′R,7′S,8′E,11′S,12′R)-6-chloro-7′-(difluoromethyl)-7′-methoxy-11′,12′-dimethyl-3,4-dihydro-2H,15′H-spiro[naphthalene-1,22′-[20]oxa[13]thia[1,14]diazatetracyclo [14.7.2.0~3,6~.0~19,24~]pentacosa[8,16,18,24]tetraen]-15′-one 13′,13′-dioxide] | 588 nM | 1.54 nM | – |
| C[C@@H]1[C@@H](C)C/C=C/[C@@](O)(CS(C)(=O)=O)[C@@H]2CC[C@H]2CN2C[C@@]3(CCCc4cc(Cl)ccc43)COc3ccc(cc32)C(=O)NS1(=O)=O [Example 100072, (1S,3′R,6′R,7′S,8′E,11′S,12′R)-6-chloro-7′-hydroxy-11′,12′-dimethyl-7′-((methylsulfonyl)methyl)-3,4-dihydro-2H,15′H-spiro[naphthalene-1,22′-[20]oxa[13]thia[1,14]diazatetracyclo [14.7.2.0~3,6~.0~19,24~]pentacosa[8,16,18,24]tetraen]-15′-one 13′,13′-dioxide] | 1720 nM | 0.451 nM | – |
| C[C@@H]1[C@@H](C)C/C=C/[C@@](O)(CS(C)(=O)=O)[C@@H]2CC[C@H]2CN2C[C@@]3(CCCc4cc(Cl)ccc43)COc3ccc(cc32)C(=O)NS1(=O)=O [Example 100073, (1S,3′R,6′R,7′S,8′E,11′S,12′R)-6-chloro-7′-hydroxy-11′,12′-dimethyl-7′-((methylsulfonyl)methyl)-3,4-dihydro-2H,15′H-spiro[naphthalene-1,22′-[20]oxa[13]thia[1,14]diazatetracyclo [14.7.2.0~3,6~.0~19,24~]pentacosa[8,16,18,24]tetraen]-15′-one 13′,13′-dioxide] | – | 0.346 nM | 1200 nM |
| CC[C@]1(O)CCC[C@H](C)[C@@H](C)S(=O)(=O)NC(=O)c2ccc3c(c2)N(C[C@@H]2CC[C@H]21)C[C@@]1(CCCc2cc(Cl)ccc21)CO3 [Example 100076, (1S,3′R,6′R,7′S,11′S,12′R)-6-chloro-7′-ethyl-7′-hydroxy-11′,12′-dimethyl-3,4-dihydro-2H,15′H-spiro[naphthalene-1,22′-[20]oxa[13]thia[1,14]diazatetracyclo [14.7.2.0~3,6~.0~19,24~]pentacosa[16,18,24]trien]-15′-one 13′,13′-dioxide] | 2670 nM | 9.66 nM | – |
| C[C@@H]1[C@@H](C)C/C=C/[C@@](O)(CC(=O)N(C)C)[C@@H]2CC[C@H]2CN2C[C@@]3(CCCc4cc(Cl)ccc43)COc3ccc(cc32)C(=O)NS1(=O)=O [Example 100077, 2-((1S,3′R,6′R,7′S,8′E,11′S,12′R)-6-chloro-7′-hydroxy-11′,12′-dimethyl-13′,13′-dioxido-15′-oxo-3,4-dihydro-2H-spiro[naphthalene-1,22′-[20]oxa[13]thia[1,14]diazatetracyclo [14.7.2.0~3,6~.0~19,24~]pentacosa[8,16,18,24]tetraen]-7′-yl)-N,N-dimethylacetamide] | – | 0.19 nM | 52 nM |
| C[C@@H]1[C@@H](C)C/C=C/[C@@](O)(CC(=O)N(C)C)[C@@H]2CC[C@H]2CN2C[C@@]3(CCCc4cc(Cl)ccc43)COc3ccc(cc32)C(=O)NS1(=O)=O [Example 100078, 2-((1S,3′R,6′R,7′S,8′E,11′S,12′R)-6-chloro-7′-hydroxy-11′,12′-dimethyl-13′,13′-dioxido-15′-oxo-3,4-dihydro-2H-spiro[naphthalene-1,22′-[20]oxa[13]thia[1,14]diazatetracyclo [14.7.2.0~3,6~.0~19,24~]pentacosa[8,16,18,24]tetraen]-7′-yl)-N,N-dimethylacetamide] | – | 0.409 nM | 2720 nM |
